“And” between values parts separate entries of the source, which are not always exact repeats. Identical values can stand only once.
Experiments:
[1] = Degradation test by sterilization; assay type: physicochemical; settings: 50 mg heat sterilized, 121° C., 20 minutes, 1.5 kgf/cm^2
Procedure: Firstly, 50 mg of 5-aminolevulinic acid p-toluenesulfonate or 5-aminolevulinic acid hydrochloride was heat sterilized (121° C., 20 minutes, 1.5 kgf/cm^2). After confirming that there is no change in weight before and after the sterilization, degree of degradation of 5-aminolevulinic acid before and after the sterilization was verified by the method described in a reference (Clin. Chem., 36/8, 1494 (1990)).

[2] = test system: Salmonella typhimurium TA 100; experiment: Back mutation test, TA100; assay type: cell-based; settings: for number of back mutation, single plates: Phosphate
Procedure: (§1) A test was carried out in accordance with the “Standard of Mutagenicity Tests Using Microorganisms” (Ministry of Labor Notification No. 77, 1988) (partial revision by Ministry of Labor Notification No. 67, 1997) and “Regarding the Tests Concerning Novel Chemical Substances and the like” (dated Nov. 21, 2003: Yaku-Shoku-Hatsu No. 1121002, 2003.11.13 Sei-Kyoku, No. 2, Kan-Ho-Ki-Hatsu No. 031121002). To 0.1 ml of a solution prepared by dissolving 5% (w/v) of 5-aminolevulinic acid phosphate in distilled water (Wako Pure Chemical Industries), 0.5 ml of 0.1 M sodium-phosphate buffer (pH 7.4) (0.5 ml S9 mix in the case of metabolism activation test) was added, and 0.1 ml of each test strain suspension (5 strains of histidine-less Salmonella typhimurium TA 100, TA 98, TA 1535 and TA 1537 and tryptophan-less Escherichia coli WP2 uvrA were used (Japan Bioassay Research Center)) was further added thereto, followed by pre-incubation at 37° C. for 20 minutes while shaking. After completion of the culturing, 2.0 ml of top agar kept at 45° C. in advance was added thereto and layered on a minimum glucose agar plate medium. In this case, 2 plates were arranged for each dosage. However, 3 plates were arranged for a solvent control (negative control). […] In the measurement, an inner area of about 80 mm in diameter of a plate of 86 mm in diameter (84 mm in inner diameter) was measured using an automatic colony analyzer (CA-11: manufactured by System Science), and calculated by carrying out area correction and counting loss correction using a personal computer. However, since reliability of the automatic colony analyzer is reduced when the number of colonies is 1,500 or more, 5 points in the plate were manually measured under the stereoscopic microscope to carry out area correction of the average value. A dosage setting test was carried out on 7 dosages diluted at a common ratio of 4, using a dosage of 5,000 μg/plate as the maximum which is the maximum dosage defined by the guideline. […] Growth inhibition of the strains by this substance to be tested was not found. […] Thus, this test was carried out by setting 5 dosages diluted at a common ratio of 2, using a dosage of 5,000 μg/plate as the maximum which is the maximum dosage defined by the guideline.

[3] = test system: Salmonella typhimurium TA 98; experiment: Back mutation test, TA98; assay type: cell-based
Procedure: as §1

[4] = Chloride ion concentration of aqueous solutions by ion chromatography; assay type: physicochemical; settings: detection limit 0.1 ppm; each sample
Procedure: When chloride ion concentration in the aqueous 5-aminolevulinic acid phosphate solutions used in the above-described examples was measured by ion chromatography under the following conditions, it was equal to or lower than the detection limit (0.1 ppm) in each sample.
(§2) The measuring conditions are as follows; A: separation column (IonPac AS12A manufactured by Japan Dionex), B: guard column (IonPac AG12A manufactured by Japan Dionex), C: eluting solution (an aqueous solution containing Na2CO3: 3.0 mmol/l and NaHCO3: 0.5 mmol/l), D: flow rate (1.5 ml/min), E: suppressor (ASRS (recycle mode, current value 50 mA)), F: amount of introduced sample (25 μl), G: temperature of constant temperature oven (35° C.) and H: detector (electric conductivity detector).
When chloride ion concentration in the aqueous 5-aminolevulinic acid nitrate solutions used in the above-described examples was measured by ion chromatography under the following conditions, it was equal to or lower than the detection limit (0.1 ppm) in each sample.
as §2, with “follows:” for “follows;”, “consisting of” for “containing”
When chloride ion concentration in the aqueous 5-aminolevulinic acid p-toluenesulfonate solutions used in the above-described examples was measured by ion chromatography under the following conditions, it was equal to or lower than the detection limit (0.1 ppm) in each sample.

Cl.NCC(=O)CCC(=O)O [5-aminolevulinic acid hydrochloride, reference compound]
Degradation degree (%) [1]: 6.6%

NCC(=O)CCC(=O)O.O=P(O)(O)O [5-aminolevulinic acid phosphate, 5-aminolevulinic Acid Phosphate]
number of back mutation, mean (in parentheses) ([2]; S9 Mix(+), 313 μg/plate): (134) colonies/plate
number of back mutation, single plates ([2]; S9 Mix(+), 313 μg/plate): 146 colonies/plate and 122 colonies/plate
number of back mutation, mean (in parentheses) ([2]; S9 Mix(+), 625 μg/plate): (102) colonies/plate
number of back mutation, single plates ([2]; S9 Mix(+), 625 μg/plate): 107 colonies/plate and 96 colonies/plate
number of back mutation, mean (in parentheses) ([2]; S9 Mix(+), 1250 μg/plate): (129) colonies/plate
number of back mutation, single plates ([2]; S9 Mix(+), 1250 μg/plate): 128 colonies/plate and 129 colonies/plate
number of back mutation, mean (in parentheses) ([2]; S9 Mix(+), 2500 μg/plate): (106) colonies/plate
number of back mutation, single plates ([2]; S9 Mix(+), 2500 μg/plate): 109 colonies/plate and 102 colonies/plate
number of back mutation, mean (in parentheses) ([2]; S9 Mix(+), 5000 μg/plate): (133) colonies/plate
number of back mutation, single plates ([2]; S9 Mix(+), 5000 μg/plate): 130 colonies/plate and 136 colonies/plate
number of back mutation, mean (in parentheses) ([2]; S9 Mix(−), 313 μg/plate): (85) colonies/plate
number of back mutation, single plates ([2]; S9 Mix(−), 313 μg/plate): 87 colonies/plate and 82 colonies/plate
number of back mutation, mean (in parentheses) ([2]; S9 Mix(−), 625 μg/plate): (90) colonies/plate
number of back mutation, single plates ([2]; S9 Mix(−), 625 μg/plate): 84 colonies/plate and 95 colonies/plate
number of back mutation, mean (in parentheses) ([2]; S9 Mix(−), 1250 μg/plate): (99) colonies/plate
number of back mutation, single plates ([2]; S9 Mix(−), 1250 μg/plate): 84 colonies/plate and 114 colonies/plate
number of back mutation, mean (in parentheses) ([2]; S9 Mix(−), 2500 μg/plate): (79) colonies/plate
number of back mutation, single plates ([2]; S9 Mix(−), 2500 μg/plate): 76 colonies/plate and 82 colonies/plate
number of back mutation, mean (in parentheses) ([2]; S9 Mix(−), 5000 μg/plate): (107) colonies/plate
number of back mutation, single plates ([2]; S9 Mix(−), 5000 μg/plate): 115 colonies/plate and 99 colonies/plate
number of back mutation, mean (in parentheses) ([3]; S9 Mix(+), 313 μg/plate): (12) colonies/plate
number of back mutation, single plates ([3]; S9 Mix(+), 313 μg/plate, Phosphate): 13 colonies/plate and 11 colonies/plate
number of back mutation, mean (in parentheses) ([3]; S9 Mix(+), 625 μg/plate): (9) colonies/plate
number of back mutation, single plates ([3]; S9 Mix(+), 625 μg/plate): 9 colonies/plate
number of back mutation, mean (in parentheses) ([3]; S9 Mix(+), 1250 μg/plate): (21) colonies/plate
number of back mutation, single plates ([3]; S9 Mix(+), 1250 μg/plate, Phosphate): 14 colonies/plate and 27 colonies/plate
number of back mutation, mean (in parentheses) ([3]; S9 Mix(+), 2500 μg/plate): (11) colonies/plate
number of back mutation, mean (in parentheses) ([3]; S9 Mix(+), 5000 μg/plate): (21) colonies/plate
number of back mutation, single plates ([3]; S9 Mix(+), 5000 μg/plate, Phosphate): 20 colonies/plate and 21 colonies/plate
number of back mutation, mean (in parentheses) ([3]; S9 Mix(−), 313 μg/plate): (8) colonies/plate
number of back mutation, single plates ([3]; S9 Mix(−), 313 μg/plate, Phosphate): 9 colonies/plate and 7 colonies/plate
number of back mutation, mean (in parentheses) ([3]; S9 Mix(−), 625 μg/plate): (9) colonies/plate
number of back mutation, mean (in parentheses) ([3]; S9 Mix(−), 1250 μg/plate): (6) colonies/plate
number of back mutation, mean (in parentheses) ([3]; S9 Mix(−), 2500 μg/plate): (16) colonies/plate
number of back mutation, single plates ([3]; S9 Mix(−), 2500 μg/plate, Phosphate): 15 colonies/plate and 17 colonies/plate
number of back mutation, mean (in parentheses) ([3]; S9 Mix(−), 5000 μg/plate): (8) colonies/plate
number of back mutation, single plates ([3]; S9 Mix(−), 5000 μg/plate, Phosphate): 9 colonies/plate and 7 colonies/plate
chloride ion concentration in the aqueous solutions used in the examples [4]: ≤ 0.1 ppm

— patent publication US8471061B2 (priority 2004, dated 2013)
